Source: publication PMC11440465, “Detection of Sulfonamide Antibiotics Using an Elastic Hydrogel Microparticles-Based Optical Biosensor” (ACS Applied Materials & Interfaces, 2024)

Target: T1, Dihydropteroate synthase (DHPS) (Streptococcus pneumoniae, UniProt P05382)
T1 construct: gene sulA; dimer; immobilized on PEMA or POMA coated glass
Assay: competitive hydrogel microparticle (SCP) binding assay, RICM contact area
Details: DHPS immobilized on PEMA-coated glass; 0.1 M MOPS pH 6.0, 5 mM MgCl2, 600 uM pyrophosphate, room temperature; competes with SMX derivative on microparticles

T1 sequence (P05382 whole entry): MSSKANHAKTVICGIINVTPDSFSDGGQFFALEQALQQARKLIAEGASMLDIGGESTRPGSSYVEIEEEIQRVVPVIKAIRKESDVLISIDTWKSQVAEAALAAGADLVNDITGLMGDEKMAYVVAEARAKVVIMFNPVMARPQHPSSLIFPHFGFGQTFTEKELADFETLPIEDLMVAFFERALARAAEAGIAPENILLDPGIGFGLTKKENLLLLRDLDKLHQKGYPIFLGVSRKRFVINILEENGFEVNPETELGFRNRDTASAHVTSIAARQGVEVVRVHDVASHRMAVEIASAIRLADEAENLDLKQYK

% decrease of SCP contact area diameter at 1 mM: > 50%
SMILES: Cc1cc(NS(=O)(=O)c2ccc(N)cc2)no1 [SMX, sulfamethoxazole]
